{
  "source": "patent US20230233545A1",
  "about": "“TREATMENT OF ATRIAL DYSFUNCTION” (MyoKardia, Inc., priority 2020, published 2023)",
  "key": {"[1]": {"system": "dogs with microembolization-induced heart failure", "assay": "Echocardiography/haemodynamics in dogs with microembolization-induced heart failure", "assay_type": "in vivo, beagle dogs", "details": "2-3 mg/kg orally, 5 hours post-treatment", "excerpt": "Seven male beagle dogs underwent a modified serial coronary microembolization protocol to produce chronic LV dysfunction and HF (Geist et al., J Pharmacol Toxicol Methods (2019) 99:106595), as determined by both LV remodeling and decreases in LV ejection fraction (LVEF). A subset of animals (n=5) were also surgically implanted with a radio-telemetry transmitter (TL11M3-D70-PCTP; Data Sciences Int., MN, USA) to provide systemic arterial blood and LV pressures. The microembolization and instrumentation techniques employed have been previously validated (Hartman et al., JACC Basic Transl Sci. (2018) 3(5):625-38).\nThe effects of Compound I (at 2-3 mg/kg oral tablet; n=14) on LV/LA function and geometry, as well as systemic/ventricular haemodynamics, were examined by echocardiography in conscious, lightly sedated animals (butorphanol 0.25-0.5 mg/kg intravenous) before dosing (i.e., baseline) as well at 5 hours post-treatment.\nIn these experiments, 2D and 2D-guided M-mode echocardiographic (CX50; Philips Medical System, MA, USA) recordings of LV dimension, LA dimension (LAd) and aortic dimension (Aod), as well as LV volume estimates (Simpson's and Teichholz's methods), were obtained at end-systole/diastole in both short-axis (papillary-level) and/or apical/parasternal long-axis views. From these measurements, LV stroke volume (LVSV), cardiac output (CO), LV fractional shortening (LVFS), LV fractional area of shortening and LVEF, as well as the LAd/Aod ratio, were calculated. LV outflow tract (LVOT) blood velocity (via Doppler) was measured and the LVOT velocity−time integral (LVOT−VTI) calculated. In addition, maximal (end-systolic, LAmax) and minimal (end-diastolic, LAmin) LA volumes were measured using the bi-plane method; both LA emptying fraction (LAEF=100×[LAmax−LAmin]/LAmax) and LA functional index (LAFI=[LAEF×LVOT−VTI]/LAmax index) were calculated (Thomas et al., Eur J Echocardiogr (2008) 9(3):356-362). Diastolic trans-mitral peak flow velocities (E and A), mitral-annulus tissue velocities (e′, s′ and a′), and their ratios during early filling (E/e′), were recorded/used as indices of diastolic performance. In all cases, atrial and ventricular indexed volumes were calculated by normalizing to the estimated body surface area (0.101×[body weight in kg][…]), while reported data were derived by averaging at least three cardiac cycles. Finally, haemodynamic signals were digitally acquired (1000 Hz) and recorded continuously with a data acquisition/analysis system (IOX; EMKA Technologies). Heart rate (HR) and end-systolic and end-diastolic pressures, as well as the peak rates of pressure rise and decline (dP/dtmax and dP/dtmin, respectively), the contractility index (dP/dt/P at dP/dtmax), and the time constant of myocardial relaxation (tau1/2, time for 50% decay from dP/dtmin) were derived from the LV pressure signal. Systolic, diastolic and mean systemic blood pressures, as well as pulse pressures, were derived from the aortic pressure signal. Haemodynamic data were reported as the average over at least 1 minute (at steady state). In vivo data are presented as means (SD) in the text or as mean±SEM in the figures; mean differences between pre- and post-treatment values were evaluated via a two-tailed paired t-test with a significance level of 0.05 set a priori (GraphPad Prism, GraphPad Software Inc., CA, USA)."}, "[2]": {"target": "T1, recombinant human cardiac S1 myosin (Homo sapiens, UniProt P12883)", "T1 construct": "subfragment-1 (51) myosins from cardiac (recombinant human), skeletal (rabbit psoas) and smooth (chicken gizzard) muscles; made in house", "T1 sequence (P12883 1-808 limits assumed)": "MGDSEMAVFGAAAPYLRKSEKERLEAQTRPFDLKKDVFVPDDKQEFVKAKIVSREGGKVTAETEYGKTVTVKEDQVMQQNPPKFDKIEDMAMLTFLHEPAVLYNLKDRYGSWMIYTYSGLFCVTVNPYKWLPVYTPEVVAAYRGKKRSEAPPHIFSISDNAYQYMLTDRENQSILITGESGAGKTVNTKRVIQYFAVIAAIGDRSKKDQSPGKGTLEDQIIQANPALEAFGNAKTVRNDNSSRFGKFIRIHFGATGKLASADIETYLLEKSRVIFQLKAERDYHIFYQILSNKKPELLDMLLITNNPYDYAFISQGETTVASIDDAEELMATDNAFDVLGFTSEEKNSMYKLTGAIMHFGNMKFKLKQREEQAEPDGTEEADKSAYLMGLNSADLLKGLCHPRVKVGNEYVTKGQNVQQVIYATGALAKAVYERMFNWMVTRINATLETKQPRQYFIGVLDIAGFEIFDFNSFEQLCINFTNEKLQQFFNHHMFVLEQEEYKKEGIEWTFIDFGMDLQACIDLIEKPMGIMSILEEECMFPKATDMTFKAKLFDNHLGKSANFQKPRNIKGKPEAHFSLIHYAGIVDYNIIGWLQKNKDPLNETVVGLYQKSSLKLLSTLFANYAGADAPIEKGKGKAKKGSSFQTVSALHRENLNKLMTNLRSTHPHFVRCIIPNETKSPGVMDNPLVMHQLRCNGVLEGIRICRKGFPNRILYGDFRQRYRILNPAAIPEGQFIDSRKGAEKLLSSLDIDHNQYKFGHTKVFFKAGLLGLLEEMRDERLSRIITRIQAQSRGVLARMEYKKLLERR", "T1 sequence (P08590 2-195 partner limits assumed)": "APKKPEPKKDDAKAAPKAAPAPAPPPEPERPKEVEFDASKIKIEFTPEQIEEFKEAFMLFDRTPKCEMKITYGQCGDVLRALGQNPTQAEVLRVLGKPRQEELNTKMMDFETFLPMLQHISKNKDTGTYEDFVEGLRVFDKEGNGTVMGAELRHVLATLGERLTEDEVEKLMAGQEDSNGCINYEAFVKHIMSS", "assay": "Actin-activated ATPase, cardiac S1 myosin", "assay_type": "biochemical", "details": "at 3 μM", "protocol": "The ability of Compound I to increase myocardial ATP turnover rates selectively was evaluated using both left atrial (LA) and left ventricular (LV) myofibrils prepared from Yucatan mini-pig hearts, as well as subfragment-1 (51) myosins from cardiac (recombinant human), skeletal (rabbit psoas) and smooth (chicken gizzard) muscles. Pig hearts were harvested, and the left atria/ventricles were freshly excised, dissected, frozen in liquid nitrogen and stored at −80° C. […]\nSteady-state ATPase measurements at varying concentrations of Compound I (0-50 μM, in 2% DMSO) were conducted using a coupled enzyme system utilizing pyruvate kinase and lactate dehydrogenase. This enzyme system couples the formation of ADP to the oxidation of NADH leading to an absorbance change at 340 nm. […] All measurements were carried out at 25° C. using a plate reader (SpectraMax; Molecular Devices, LLC, CA, USA) to monitor the change in absorbance as a function of time; data were normalized to a per-second scale as described in Green et al., Science (2016) 351(6273):617-21. […]"}, "[3]": {"target": "T2, left ventricular (LV) myofibrils (Sus scrofa, UniProt P79293)", "T2 construct": "from tissue; host or cells: left ventricle of Yucatan mini-pig heart", "T2 sequence (P79293 whole entry, the tested form may be a part)": "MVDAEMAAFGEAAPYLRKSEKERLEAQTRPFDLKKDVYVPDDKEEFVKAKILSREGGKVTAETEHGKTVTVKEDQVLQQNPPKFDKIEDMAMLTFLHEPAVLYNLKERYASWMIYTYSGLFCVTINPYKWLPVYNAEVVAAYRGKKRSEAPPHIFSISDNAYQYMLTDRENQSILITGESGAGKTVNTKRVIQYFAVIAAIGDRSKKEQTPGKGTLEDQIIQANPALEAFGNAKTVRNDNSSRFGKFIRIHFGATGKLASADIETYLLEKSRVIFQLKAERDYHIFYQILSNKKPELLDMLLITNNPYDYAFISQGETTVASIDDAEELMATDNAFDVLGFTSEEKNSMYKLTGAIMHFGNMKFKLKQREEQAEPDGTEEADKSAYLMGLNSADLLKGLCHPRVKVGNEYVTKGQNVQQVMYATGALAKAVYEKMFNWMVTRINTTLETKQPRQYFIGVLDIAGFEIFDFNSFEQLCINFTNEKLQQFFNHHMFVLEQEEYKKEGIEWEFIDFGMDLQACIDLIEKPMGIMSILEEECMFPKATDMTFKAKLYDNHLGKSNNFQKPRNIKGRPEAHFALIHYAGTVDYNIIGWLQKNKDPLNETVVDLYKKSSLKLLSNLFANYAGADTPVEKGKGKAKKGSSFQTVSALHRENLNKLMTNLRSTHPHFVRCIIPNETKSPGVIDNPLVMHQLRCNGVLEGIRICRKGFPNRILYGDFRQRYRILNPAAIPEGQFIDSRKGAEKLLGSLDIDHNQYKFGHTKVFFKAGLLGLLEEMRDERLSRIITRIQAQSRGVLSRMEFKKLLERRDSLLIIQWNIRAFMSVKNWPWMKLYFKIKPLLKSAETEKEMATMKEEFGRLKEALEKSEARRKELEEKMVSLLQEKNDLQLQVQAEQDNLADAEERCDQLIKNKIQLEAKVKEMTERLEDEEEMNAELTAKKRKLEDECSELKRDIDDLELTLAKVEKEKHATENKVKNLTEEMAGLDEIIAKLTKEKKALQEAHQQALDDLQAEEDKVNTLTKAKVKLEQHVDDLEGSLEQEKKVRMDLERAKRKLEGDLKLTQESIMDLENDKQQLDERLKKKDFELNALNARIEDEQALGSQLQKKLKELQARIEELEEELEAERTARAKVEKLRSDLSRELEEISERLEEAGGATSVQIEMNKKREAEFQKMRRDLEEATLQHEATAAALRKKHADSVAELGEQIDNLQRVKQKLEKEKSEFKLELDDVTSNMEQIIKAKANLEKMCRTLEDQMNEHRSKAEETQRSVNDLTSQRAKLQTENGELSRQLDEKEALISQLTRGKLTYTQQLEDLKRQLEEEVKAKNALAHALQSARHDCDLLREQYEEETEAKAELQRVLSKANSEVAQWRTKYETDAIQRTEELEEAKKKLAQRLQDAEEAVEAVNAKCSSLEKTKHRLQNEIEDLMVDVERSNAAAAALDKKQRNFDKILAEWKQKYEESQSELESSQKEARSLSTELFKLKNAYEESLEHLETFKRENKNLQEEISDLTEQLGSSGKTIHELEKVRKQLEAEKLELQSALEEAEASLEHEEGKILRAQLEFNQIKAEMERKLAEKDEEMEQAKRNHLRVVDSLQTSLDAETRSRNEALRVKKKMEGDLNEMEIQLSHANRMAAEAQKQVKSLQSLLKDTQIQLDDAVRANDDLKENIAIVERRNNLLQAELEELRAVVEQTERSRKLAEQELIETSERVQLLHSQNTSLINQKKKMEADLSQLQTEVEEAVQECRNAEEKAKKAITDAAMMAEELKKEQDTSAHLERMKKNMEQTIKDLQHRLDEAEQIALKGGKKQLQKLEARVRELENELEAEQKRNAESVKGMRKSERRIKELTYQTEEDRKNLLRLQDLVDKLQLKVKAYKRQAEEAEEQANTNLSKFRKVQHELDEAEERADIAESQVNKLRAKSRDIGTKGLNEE", "assay": "Steady-state ATPase (ATP turnover rate), LV myofibrils", "assay_type": "biochemical, Yucatan mini-pig", "protocol": "The ability of Compound I to increase myocardial ATP turnover rates selectively was evaluated using both left atrial (LA) and left ventricular (LV) myofibrils prepared from Yucatan mini-pig hearts, as well as subfragment-1 (51) myosins from cardiac (recombinant human), skeletal (rabbit psoas) and smooth (chicken gizzard) muscles. Pig hearts were harvested, and the left atria/ventricles were freshly excised, dissected, frozen in liquid nitrogen and stored at −80° C. Myofibrils and S1 myosins were prepared as described in Kawas et al., J Biol Chem. (2017) 292(40:16571-7. Both atrial (n=4 hearts, 2 replicates each) and ventricular (n=3 hearts, 2 replicates each) myofibrils were assayed at a constant concentration of 1.0 mg/mL (at Ca^2+ sensitivity [pCa] 6.0). Rabbit skeletal (0.2 μM, n=8), chicken gizzard (0.5 n=10) and recombinant human cardiac (0.5 n=10) S1 myosin were assayed with a constant concentration of actin (14 μM).\nSteady-state ATPase measurements at varying concentrations of Compound I (0-50 μM, in 2% DMSO) were conducted using a coupled enzyme system utilizing pyruvate kinase and lactate dehydrogenase. This enzyme system couples the formation of ADP to the oxidation of NADH leading to an absorbance change at 340 nm. The buffering system used in all experiments was 12 mM PIPES, 2 mM MgCl2 and 1 mM dithiothreitol (DTT) at pH 6.8 (PM12 buffer). All measurements were carried out at 25° C. using a plate reader (SpectraMax; Molecular Devices, LLC, CA, USA) to monitor the change in absorbance as a function of time; data were normalized to a per-second scale as described in Green et al., Science (2016) 351(6273):617-21. Data are presented as means (standard deviation [SD]) in text or as mean±standard error of the mean (SEM) in figures; half maximal effective concentration (EC50) values (and 95% confidence intervals [CIs]) were calculated using a four-parameter-fit model (GraphPad Prism, GraphPad Software Inc., CA, USA)."}},
  "data": [
    {"smiles": "Cn1cc(S(=O)(=O)[C@@](C)(F)C2CCN(C(=O)Nc3ccon3)CC2)c(C(F)F)n1", "note": "[Compound I, (R)-4-(1-((3-(difluoromethyl)-1-methyl-1H-pyrazol-4-yl)sulfonyl)-1-fluoroethyl)-N-(isoxazol-3-yl)piperidine-1-carboxamide]", "values": [
      {"measurement": "LVESD", "setting": "[1]; SD ±0.2, baseline 3.4 (±0.2), p<0.05", "result": 3.2, "unit": "cm"},
      {"measurement": "E/A", "setting": "[1]; SD ±0.3, baseline 1.6 (±0.2)", "result": 1.6},
      {"measurement": "LVEDD", "setting": "[1]; SD ±0.3, baseline 4.3 (±0.2)", "result": 4.3, "unit": "cm"},
      {"measurement": "e′ (mitral annular velocity)", "setting": "[1]; SD ±1.1, baseline 7.4 (±1.0)", "result": 7.3, "unit": "cm/s"},
      {"measurement": "a′ (late peak mitral annular velocity)", "setting": "[1]; SD ±1.3, baseline 4.0 (±1.2), p<0.05", "result": 5.4, "unit": "cm/s"},
      {"measurement": "CO (cardiac output, estimated)", "setting": "[1]; SD ±1.6, baseline 3.4 (±0.9), p<0.05", "result": 4.1, "unit": "L/min"},
      {"measurement": "LVFS", "setting": "[1]; SD ±3.6, baseline 19.6 (±2.7), p<0.05", "result": 25.6, "unit": "%"},
      {"measurement": "LVGCS (LV global circumferential strain)", "setting": "[1]; SD ±4.4, baseline −13.5 (±4.4), p<0.05", "result": "−17.3", "unit": "%"},
      {"measurement": "LVEF", "setting": "[1]; SD ±6, baseline 41 (±5), p<0.05", "result": 51, "unit": "%"},
      {"measurement": "LAFI (left atrial functional index)", "setting": "[1]; SD ±6.5, baseline 7.7 (±3.3), p<0.05", "result": 15.2},
      {"measurement": "LAEF (left atrial emptying fraction)", "setting": "[1]; SD ±6.9, baseline 20.4 (±4.4), p<0.05", "result": 31.1, "unit": "%"},
      {"measurement": "A (late peak wave velocity, mitral inflow)", "setting": "[1]; SD ±8, baseline 41 (±6)", "result": 46, "unit": "cm/s"},
      {"measurement": "LAmin Vol. index (LAminVi)", "setting": "[1]; SD ±9.0, baseline 21.2 (±8.3), p<0.05", "result": 17.9, "unit": "mL/m^2"},
      {"measurement": "LAmax Vol. index", "setting": "[1]; SD ±9.7, baseline 26.7 (±9.7), p<0.05", "result": 25.1, "unit": "mL/m^2"},
      {"measurement": "DBP (diastolic blood pressure)", "setting": "[1]; SD ±13, baseline 66 (±10)", "result": 72, "unit": "mmHg"},
      {"measurement": "E (early trans-mitral peak wave velocity)", "setting": "[1]; SD ±40, baseline 71 (±12)", "result": 74, "unit": "cm/s"},
      {"measurement": "SET (systolic ejection time)", "setting": "[1]; baseline 178 (±24), p<0.05", "result": 200, "unit": "ms"},
      {"measurement": "LVSV (left ventricular stroke volume)", "setting": "[1]; mean, SD ±10.7, baseline 33.0 (±5.9), p<0.05", "result": 43.6, "unit": "mL"},
      {"measurement": "E/e′", "setting": "[1]; n/u, SD ±1.2, baseline 9.7 (±1.9)", "result": 10.2},
      {"measurement": "LVEDP (LV end-diastolic pressure)", "setting": "[1]; telemetry subset, SD ±4, baseline 18 (±2)", "result": 16, "unit": "mmHg"},
      {"measurement": "SBP (systolic blood pressure)", "setting": "[1]; telemetry subset, SD ±10, baseline 110 (±10)", "result": 119, "unit": "mmHg"},
      {"measurement": "HR (heart rate)", "setting": "[1]; telemetry subset, SD ±50, baseline 108 (±45), p<0.05", "result": 99, "unit": "bpm"},
      {"measurement": "increase in ATPase rate, cardiac (human) S1 myosin", "setting": "[2]", "result": 1.4, "unit": "fold"},
      {"measurement": "increase in ATPase, LV porcine myofibrils", "setting": "[3]; at 3 μM", "result": 85, "unit": "%"},
      {"measurement": "increase in ATPase turnover rate, ventricular myofibrils", "setting": "[3]; at 50 μM, SD ±0.3", "result": 3.0, "unit": "fold"},
      {"measurement": "AC50", "setting": "[3]; pCa 6.0, 25° C., 95% CI 3.7-27.5, read-out: half maximal active concentration [AC50], ATPase turnover rate, ventricular myofibrils", "result": 6, "unit": "µM"}
    ]}
  ]
}
